Source: ChEMBL document CHEMBL4507273 (2021)

Assays:
[1] = target: Mitogen-activated protein kinase 8 (Homo sapiens) (UniProt P45983); settings: Compound concentration 1000.0 nM
[2] = target: Son of sevenless homolog 2 (Homo sapiens, UniProt Q07890, G12C)
[3] = target: Cyclin-dependent kinase 8 (Homo sapiens) (UniProt P49336); settings: Compound concentration 1000.0 nM
[4] = target: Cyclin-dependent kinase-like 3 (Homo sapiens) (UniProt Q8IVW4); settings: Compound concentration 1000.0 nM
[5] = target: Mitogen-activated protein kinase kinase kinase 7 (Homo sapiens) (UniProt O43318); settings: Compound concentration 1000.0 nM
[6] = target: Tyrosine-protein kinase Srms (Homo sapiens) (UniProt Q9H3Y6); settings: Compound concentration 1000.0 nM
[7] = target: Ankyrin repeat and protein kinase domain-containing protein 1 (Homo sapiens) (UniProt Q8NFD2); settings: Compound concentration 1000.0 nM
[8] = target: T1, Muscarinic acetylcholine receptor M1 (Homo sapiens) (UniProt P11229); settings: Compound concentration 10.0 uM
T1 sequence (whole entry): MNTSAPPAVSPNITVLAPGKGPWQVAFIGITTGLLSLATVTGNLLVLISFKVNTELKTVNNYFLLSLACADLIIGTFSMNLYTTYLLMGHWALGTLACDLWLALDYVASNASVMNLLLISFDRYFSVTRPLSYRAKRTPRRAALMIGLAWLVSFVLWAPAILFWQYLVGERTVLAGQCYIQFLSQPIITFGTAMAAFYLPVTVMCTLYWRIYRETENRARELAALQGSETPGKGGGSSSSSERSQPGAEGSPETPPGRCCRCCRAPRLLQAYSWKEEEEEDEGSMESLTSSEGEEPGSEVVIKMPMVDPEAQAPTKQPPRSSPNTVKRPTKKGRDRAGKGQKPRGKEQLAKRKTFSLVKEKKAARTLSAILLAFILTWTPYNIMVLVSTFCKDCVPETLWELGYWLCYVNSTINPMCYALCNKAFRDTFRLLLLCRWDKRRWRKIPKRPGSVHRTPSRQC

[9] = target: T2, Alpha-1A adrenergic receptor (Homo sapiens) (UniProt P35348); settings: Compound concentration 10.0 uM
T2 sequence (whole entry): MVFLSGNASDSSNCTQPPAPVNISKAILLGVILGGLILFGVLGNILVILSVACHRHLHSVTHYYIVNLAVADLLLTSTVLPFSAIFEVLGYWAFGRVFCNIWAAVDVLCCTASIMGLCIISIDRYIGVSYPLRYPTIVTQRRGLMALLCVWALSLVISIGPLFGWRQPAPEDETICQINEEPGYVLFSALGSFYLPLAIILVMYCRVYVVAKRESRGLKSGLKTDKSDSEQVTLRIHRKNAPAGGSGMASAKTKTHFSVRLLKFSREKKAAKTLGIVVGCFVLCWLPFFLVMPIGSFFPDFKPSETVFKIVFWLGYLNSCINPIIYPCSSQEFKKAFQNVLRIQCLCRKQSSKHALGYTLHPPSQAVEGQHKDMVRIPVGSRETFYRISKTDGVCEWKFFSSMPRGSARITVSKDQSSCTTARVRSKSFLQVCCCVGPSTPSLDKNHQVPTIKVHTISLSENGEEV

[10] = target: Serine/threonine-protein kinase RIO1 (Homo sapiens) (UniProt Q9BRS2); settings: Compound concentration 1000.0 nM
[11] = system: Phosphatidylinositol 4,5-bisphosphate 3-kinase catalytic subunit alpha isoform (Homo sapiens), P42336 [E545K]; settings: Compound concentration 1000.0 nM
[12] = target: Dual specificity tyrosine-phosphorylation-regulated kinase 1A (Homo sapiens) (UniProt Q13627); settings: Compound concentration 1000.0 nM
[13] = target: Mitogen-activated protein kinase 1 (Homo sapiens) (UniProt P28482); settings: Compound concentration 1000.0 nM
[14] = target: Casein kinase II subunit alpha (Homo sapiens) (UniProt P68400); settings: Compound concentration 1000.0 nM
[15] = target: Casein kinase I isoform gamma-3 (Homo sapiens) (UniProt Q9Y6M4); settings: Compound concentration 1000.0 nM
[16] = system: eIF-2-alpha kinase GCN2 (Homo sapiens), Q9P2K8 [S808G]; settings: Compound concentration 1000.0 nM
[17] = target: Dual specificity tyrosine-phosphorylation-regulated kinase 1B (Homo sapiens) (UniProt Q9Y463); settings: Compound concentration 1000.0 nM
[18] = system: Receptor-type tyrosine-protein kinase FLT3 (Homo sapiens), P36888 [R834Q]; settings: Compound concentration 1000.0 nM
[19] = system: Phosphatidylinositol 4,5-bisphosphate 3-kinase catalytic subunit alpha isoform (Homo sapiens), P42336 [C420R]; settings: Compound concentration 1000.0 nM
[20] = target: Ephrin type-B receptor 2 (Homo sapiens) (UniProt P29323); settings: Compound concentration 1000.0 nM
[21] = target: Leukocyte tyrosine kinase receptor (Homo sapiens) (UniProt P29376); settings: Compound concentration 1000.0 nM
[22] = target: Proto-oncogene tyrosine-protein kinase ROS (Homo sapiens) (UniProt P08922); settings: Compound concentration 1000.0 nM
Sequence of Proto-oncogene tyrosine-protein kinase ROS (Homo sapiens) (P08922 whole entry): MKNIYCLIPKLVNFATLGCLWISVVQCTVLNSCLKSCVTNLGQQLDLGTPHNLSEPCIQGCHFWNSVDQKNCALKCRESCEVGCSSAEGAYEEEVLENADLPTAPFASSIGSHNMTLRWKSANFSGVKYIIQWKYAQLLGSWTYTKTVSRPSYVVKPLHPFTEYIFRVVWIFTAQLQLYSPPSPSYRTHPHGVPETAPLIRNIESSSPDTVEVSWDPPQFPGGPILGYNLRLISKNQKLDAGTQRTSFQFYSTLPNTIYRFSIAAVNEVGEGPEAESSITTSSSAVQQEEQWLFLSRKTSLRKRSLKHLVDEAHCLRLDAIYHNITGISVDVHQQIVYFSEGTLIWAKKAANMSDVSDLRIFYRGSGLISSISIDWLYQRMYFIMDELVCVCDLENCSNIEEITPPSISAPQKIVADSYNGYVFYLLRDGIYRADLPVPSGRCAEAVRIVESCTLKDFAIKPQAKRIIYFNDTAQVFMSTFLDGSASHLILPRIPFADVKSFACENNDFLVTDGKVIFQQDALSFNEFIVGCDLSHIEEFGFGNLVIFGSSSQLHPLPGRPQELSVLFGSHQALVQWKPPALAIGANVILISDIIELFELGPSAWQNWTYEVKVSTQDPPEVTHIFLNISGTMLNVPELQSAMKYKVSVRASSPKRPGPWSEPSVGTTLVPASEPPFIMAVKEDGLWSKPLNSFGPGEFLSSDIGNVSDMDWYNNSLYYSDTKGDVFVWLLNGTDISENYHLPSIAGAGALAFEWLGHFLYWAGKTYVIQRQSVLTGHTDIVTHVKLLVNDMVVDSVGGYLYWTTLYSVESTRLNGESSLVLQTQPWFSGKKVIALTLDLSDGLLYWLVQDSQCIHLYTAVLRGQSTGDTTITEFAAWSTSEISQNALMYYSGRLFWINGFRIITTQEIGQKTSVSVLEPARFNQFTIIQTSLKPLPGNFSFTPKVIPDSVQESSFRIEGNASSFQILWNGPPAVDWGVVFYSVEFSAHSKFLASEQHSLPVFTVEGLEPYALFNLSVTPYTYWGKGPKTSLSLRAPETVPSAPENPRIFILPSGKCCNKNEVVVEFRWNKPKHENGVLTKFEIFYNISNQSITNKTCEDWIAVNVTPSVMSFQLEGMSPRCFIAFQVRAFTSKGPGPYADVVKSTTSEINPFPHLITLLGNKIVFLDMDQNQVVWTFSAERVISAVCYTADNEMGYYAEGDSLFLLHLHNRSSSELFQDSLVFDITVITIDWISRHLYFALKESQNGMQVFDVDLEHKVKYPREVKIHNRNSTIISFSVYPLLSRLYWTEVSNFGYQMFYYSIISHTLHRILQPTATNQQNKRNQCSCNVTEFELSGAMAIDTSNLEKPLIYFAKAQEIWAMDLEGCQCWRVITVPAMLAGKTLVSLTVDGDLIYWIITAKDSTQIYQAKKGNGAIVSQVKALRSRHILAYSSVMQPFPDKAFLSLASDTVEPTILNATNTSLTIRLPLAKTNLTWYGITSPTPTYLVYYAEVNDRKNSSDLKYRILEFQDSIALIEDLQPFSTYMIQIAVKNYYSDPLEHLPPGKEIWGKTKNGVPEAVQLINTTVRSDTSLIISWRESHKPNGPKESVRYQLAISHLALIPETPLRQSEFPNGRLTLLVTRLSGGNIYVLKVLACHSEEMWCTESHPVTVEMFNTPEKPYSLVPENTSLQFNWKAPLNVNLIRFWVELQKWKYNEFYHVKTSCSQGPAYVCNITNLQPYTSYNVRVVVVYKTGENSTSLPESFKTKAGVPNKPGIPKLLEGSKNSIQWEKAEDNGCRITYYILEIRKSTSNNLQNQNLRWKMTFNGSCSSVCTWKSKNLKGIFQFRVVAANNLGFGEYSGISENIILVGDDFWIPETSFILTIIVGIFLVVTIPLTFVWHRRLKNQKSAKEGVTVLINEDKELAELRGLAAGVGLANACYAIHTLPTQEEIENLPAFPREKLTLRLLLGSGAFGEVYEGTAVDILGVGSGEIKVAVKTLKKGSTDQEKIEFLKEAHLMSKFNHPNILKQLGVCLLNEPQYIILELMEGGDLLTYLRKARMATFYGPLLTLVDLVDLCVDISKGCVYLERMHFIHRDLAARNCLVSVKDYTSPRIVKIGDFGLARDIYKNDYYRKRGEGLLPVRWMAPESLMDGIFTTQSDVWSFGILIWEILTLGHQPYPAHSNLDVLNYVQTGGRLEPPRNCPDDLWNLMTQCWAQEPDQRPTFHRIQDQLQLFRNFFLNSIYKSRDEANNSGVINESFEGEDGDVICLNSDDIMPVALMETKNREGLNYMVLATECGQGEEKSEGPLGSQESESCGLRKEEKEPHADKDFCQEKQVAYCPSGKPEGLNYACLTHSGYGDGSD

[23] = target: Serine/threonine-protein kinase Nek5 (Homo sapiens) (UniProt Q6P3R8); settings: Compound concentration 1000.0 nM
[24] = target: Tyrosine-protein kinase ABL1 (Homo sapiens) (UniProt P00519); settings: Compound concentration 1000.0 nM
Sequence of Tyrosine-protein kinase ABL1 (Homo sapiens) (P00519 whole entry, canonical isoform): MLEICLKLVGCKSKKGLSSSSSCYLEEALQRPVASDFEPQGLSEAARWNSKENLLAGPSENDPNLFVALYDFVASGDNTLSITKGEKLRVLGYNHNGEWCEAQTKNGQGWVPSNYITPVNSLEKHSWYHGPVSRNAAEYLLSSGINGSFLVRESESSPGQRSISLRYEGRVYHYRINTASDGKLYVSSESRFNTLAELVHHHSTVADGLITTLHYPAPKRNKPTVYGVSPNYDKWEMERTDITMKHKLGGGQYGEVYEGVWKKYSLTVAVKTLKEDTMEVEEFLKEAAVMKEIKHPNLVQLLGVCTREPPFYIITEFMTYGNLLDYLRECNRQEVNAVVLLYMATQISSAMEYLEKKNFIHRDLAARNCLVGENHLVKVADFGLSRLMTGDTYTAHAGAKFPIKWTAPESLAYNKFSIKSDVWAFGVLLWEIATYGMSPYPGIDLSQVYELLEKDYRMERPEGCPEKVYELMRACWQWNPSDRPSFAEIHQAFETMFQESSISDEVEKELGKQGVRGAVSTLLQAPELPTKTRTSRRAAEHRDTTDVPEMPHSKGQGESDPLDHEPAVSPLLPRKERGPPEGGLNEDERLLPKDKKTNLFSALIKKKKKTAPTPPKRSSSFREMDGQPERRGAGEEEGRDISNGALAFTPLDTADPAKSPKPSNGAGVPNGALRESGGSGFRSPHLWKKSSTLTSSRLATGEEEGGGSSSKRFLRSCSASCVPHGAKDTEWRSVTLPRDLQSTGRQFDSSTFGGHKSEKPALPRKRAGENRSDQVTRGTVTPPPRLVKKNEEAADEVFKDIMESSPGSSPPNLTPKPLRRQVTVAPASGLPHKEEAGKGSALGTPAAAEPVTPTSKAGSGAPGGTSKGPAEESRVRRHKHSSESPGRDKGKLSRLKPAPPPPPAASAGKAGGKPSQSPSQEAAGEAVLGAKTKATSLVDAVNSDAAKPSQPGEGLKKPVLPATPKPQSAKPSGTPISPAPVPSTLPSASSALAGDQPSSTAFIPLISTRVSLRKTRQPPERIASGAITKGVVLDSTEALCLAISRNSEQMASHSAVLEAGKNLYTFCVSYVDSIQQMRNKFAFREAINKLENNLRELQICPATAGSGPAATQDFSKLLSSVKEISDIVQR

[25] = target: Casein kinase I isoform delta (Homo sapiens) (UniProt P48730); settings: Compound concentration 1000.0 nM
[26] = target: Serine/threonine-protein kinase 36 (Homo sapiens) (UniProt Q9NRP7); settings: Compound concentration 1000.0 nM
Sequence of Serine/threonine-protein kinase 36 (Homo sapiens) (Q9NRP7 whole entry): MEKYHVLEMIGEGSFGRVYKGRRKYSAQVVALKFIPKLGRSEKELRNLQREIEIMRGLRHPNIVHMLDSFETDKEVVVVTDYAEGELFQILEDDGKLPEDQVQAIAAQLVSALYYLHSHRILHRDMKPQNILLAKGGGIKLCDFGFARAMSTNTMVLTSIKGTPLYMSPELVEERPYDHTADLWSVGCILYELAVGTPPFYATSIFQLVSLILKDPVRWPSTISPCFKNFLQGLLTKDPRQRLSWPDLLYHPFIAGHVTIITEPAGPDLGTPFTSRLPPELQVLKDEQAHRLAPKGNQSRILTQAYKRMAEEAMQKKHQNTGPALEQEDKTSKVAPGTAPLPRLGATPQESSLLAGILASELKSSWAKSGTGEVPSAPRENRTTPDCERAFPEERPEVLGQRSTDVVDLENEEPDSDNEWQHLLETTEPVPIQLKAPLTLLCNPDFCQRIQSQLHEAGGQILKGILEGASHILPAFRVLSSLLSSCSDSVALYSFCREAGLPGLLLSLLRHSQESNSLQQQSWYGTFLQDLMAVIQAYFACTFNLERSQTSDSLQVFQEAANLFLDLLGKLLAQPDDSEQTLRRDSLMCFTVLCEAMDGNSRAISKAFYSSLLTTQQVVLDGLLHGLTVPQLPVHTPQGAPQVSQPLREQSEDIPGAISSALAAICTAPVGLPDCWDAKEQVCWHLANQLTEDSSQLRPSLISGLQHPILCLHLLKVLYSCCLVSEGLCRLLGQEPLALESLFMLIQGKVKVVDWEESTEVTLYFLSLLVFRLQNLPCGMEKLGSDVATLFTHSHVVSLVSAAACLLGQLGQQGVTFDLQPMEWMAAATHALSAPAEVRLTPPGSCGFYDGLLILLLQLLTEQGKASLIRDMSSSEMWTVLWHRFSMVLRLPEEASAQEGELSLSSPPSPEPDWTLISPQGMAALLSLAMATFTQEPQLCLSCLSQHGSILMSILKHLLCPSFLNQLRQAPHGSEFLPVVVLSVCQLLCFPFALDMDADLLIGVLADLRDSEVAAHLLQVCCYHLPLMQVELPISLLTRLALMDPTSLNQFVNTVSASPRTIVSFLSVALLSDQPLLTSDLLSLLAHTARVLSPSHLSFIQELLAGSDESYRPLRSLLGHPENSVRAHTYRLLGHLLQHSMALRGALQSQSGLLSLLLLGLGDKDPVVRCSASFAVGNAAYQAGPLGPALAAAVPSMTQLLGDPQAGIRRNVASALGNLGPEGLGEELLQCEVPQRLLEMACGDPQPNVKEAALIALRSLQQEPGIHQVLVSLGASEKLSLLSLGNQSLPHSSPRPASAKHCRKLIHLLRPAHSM

[27] = target: Fibroblast growth factor receptor 3 (Homo sapiens) (UniProt P22607); settings: Compound concentration 1000.0 nM
[28] = target: Calcium/calmodulin-dependent protein kinase type II subunit alpha (Homo sapiens) (UniProt Q9UQM7); settings: Compound concentration 1000.0 nM
[29] = target: Mitogen-activated protein kinase 13 (Homo sapiens) (UniProt O15264); settings: Compound concentration 1000.0 nM
[30] = target: Maternal embryonic leucine zipper kinase (Homo sapiens) (UniProt Q14680); settings: Compound concentration 1000.0 nM
[31] = target: Sigma intracellular receptor 2 (Homo sapiens, UniProt Q5BJF2); test: GPCRScan assay: inhibition of Sigma 2; parameters: radioligand conc. used [nm] 5.0, parental cells HEKT
Sequence of Sigma intracellular receptor 2 (Q5BJF2 whole entry): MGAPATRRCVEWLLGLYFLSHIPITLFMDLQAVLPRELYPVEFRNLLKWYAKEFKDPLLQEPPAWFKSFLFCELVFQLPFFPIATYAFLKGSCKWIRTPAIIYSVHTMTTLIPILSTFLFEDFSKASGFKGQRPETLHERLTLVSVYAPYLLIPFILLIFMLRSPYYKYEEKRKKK

[32] = target: Tyrosine-protein kinase ABL1 (Homo sapiens) (UniProt P00519); settings: Compound concentration 1000.0 nM; remark: listed apart in the source

Compound | residual activity [1] [%] | IC50 [2] | residual activity [3] [%] | residual activity [4] [%] | residual activity [5] [%] | residual activity [6] [%] | residual activity [7] [%] | inhibition [8] [%] | inhibition [9] [%] | residual activity [10] [%] | residual activity [11] [%] | residual activity [12] [%] | residual activity [13] [%] | residual activity [14] [%] | residual activity [15] [%] | residual activity [16] [%] | residual activity [17] [%] | residual activity [18] [%] | residual activity [19] [%] | residual activity [20] [%] | other results
CNCc1ccccc1-c1csc([C@@H](C)Nc2nc(C)nc3cc(OC)c(OC)cc23)c1 [BAY-293] | 66 | > 20 µM (not active) | 68 | 99 | 70 | 92 | 76 | 88.8 | 71.6 | 100 | 78 | 88 | 78 | 83 | 99 | 99 | 64 | 79 | 81 | 100 | residual activity [21]: 97%; residual activity [22]: 84%; residual activity [23]: 99%; residual activity [24]: 80%; residual activity [25]: 82%; residual activity [26]: 100%; residual activity [27]: 90%; residual activity [28]: 99%; residual activity [29]: 100%; residual activity [30]: 53%; Ki ([31]; read-out: Ki): 180 nM; residual activity [32]: 97%
CNCc1ccccc1-c1csc([C@H](C)Nc2nc(C)nc3cc(OC)c(OC)cc23)c1 [BAY-294] | 81 | > 20 µM (not active) | 84 | 97 | 75 | 88 | 90 | 89.1 | 83.4 | 96 | 75 | 80 | 100 | 91 | 93 | 100 | 55 | 82 | 97 | 100 | residual activity [21]: 98%; residual activity [22]: 100%; residual activity [23]: 100%; residual activity [24]: 87%; residual activity [25]: 95%; residual activity [26]: 100%; residual activity [27]: 98%; residual activity [28]: 100%; residual activity [29]: 100%; residual activity [30]: 74%; Ki ([31]; read-out: Ki): 638 nM; Ki ([31]; read-out: pKi (converted)): 610 nM; residual activity [32]: 100%
